Data published in US20220282217A1, “COMPOSITIONS AND METHODS FOR PREPARING T CELL COMPOSITIONS AND USES THEREOF” (priority 2019, published 2022).
pIC50: −log10 of the molar value. Like-named read-outs stand apart in the source and are kept apart here. Where a SMILES comes first, the peptide text is derived from it.

Molecular target: HLA-A02.01 (Homo sapiens, UniProt P04439, D140Y/D185E/D98H/E176V/E277Q/G131W/G231S/I119V/I121R/I166T/I218V/L300P/L318F/N151K/N90K/P208A/P217A/Q86G/Q94H/R138H/R169H/T345S)
Test: Class I MHC peptide binding affinity (displacement of radiolabeled reference peptide)
Settings: for IC50: allele A02.01, (nM))
Experimental: In brief, MHCI complexes were prepared and bound to radiolabeled reference peptides. Peptides were incubated at varying concentrations with these complexes for 2 days, and the amount of remaining radiolabeled peptide bound to […] was measured using size exclusion gel-filtration.

[1] = read-out: Observed Affinity (IC50

How did the IC50 [1] turn out when `CC(C)C[C@H](NC(=O)[C@H](C)N)C(=O)N[C@@H](CC(N)=O)C(=O)N[C@@H](CO)C(=O)N[C@@H](CCC(=O)O)C(=O)N[C@@H](C)C(=O)N[C@@H](CC(C)C)C(=O)N[C@@H](CO)C(=O)N[C@H](C(=O)N[C@H](C(=O)O)C(C)C)C(C)C` was run?
Its IC50 is 15 nM.

Which IC50 [1] does the source give for `CC[C@H](C)[C@H](NC(=O)[C@H](CC(C)C)NC(=O)[C@@H](N)CS)C(=O)N[C@H](C(=O)N[C@@H](CO)C(=O)N[C@@H](CCCNC(=N)N)C(=O)N[C@H](C(=O)N[C@@H](CC(C)C)C(=O)N[C@@H](CC(C)C)C(=O)N[C@@H](CC(C)C)C(=O)O)[C@@H](C)O)C(C)C` here?
The IC50 was 2010 nM.

Which IC50 [1] does the source give for `CC[C@H](C)[C@H](NC(=O)[C@@H]1CCCN1C(=O)[C@H](CCCNC(=N)N)NC(=O)[C@H](CCC(N)=O)NC(=O)[C@H](CC(N)=O)NC(=O)[C@H](CCSC)NC(=O)CNC(=O)CNC(=O)[C@H](CCSC)NC(=O)[C@@H](N)CS)C(=O)O` here?
The IC50 was 3670 nM.

`CC[C@H](C)[C@H](NC(=O)[C@H](CC(C)C)NC(=O)[C@@H]1CCCN1C(=O)[C@H](Cc1ccccc1)NC(=O)[C@H](CC(C)C)NC(=O)[C@@H](N)CCC(=O)O)C(=O)N[C@@H](Cc1ccccc1)C(=O)N1CCC[C@H]1C(=O)N[C@@H](C)C(=O)O` was tested. Which IC50 [1] did it give?
The IC50 was 13 nM.

Which IC50 [1] does the source give for `CSCC[C@H](NC(=O)[C@H](CCCCN)NC(=O)CNC(=O)[C@H](CC(N)=O)NC(=O)[C@H](CCC(N)=O)NC(=O)[C@@H](N)Cc1ccccc1)C(=O)N[C@@H](C)C(=O)N[C@@H](CC(C)C)C(=O)N[C@@H](CO)C(=O)N[C@@H](C)C(=O)O` here?
The IC50 was 6160 nM.

`CC(C)C[C@H](NC(=O)CNC(=O)[C@H](Cc1c[nH]c2ccccc12)NC(=O)[C@H](CC(=O)O)NC(=O)[C@H](CCCCN)NC(=O)CNC(=O)[C@H](CCC(N)=O)NC(=O)[C@@H](NC(=O)[C@@H](N)Cc1ccccc1)C(C)C)C(=O)O` was tested. Which IC50 [1] did it give?
The IC50 was 34 nM.

With `CC[C@H](C)[C@H](N)C(=O)N[C@H](C(=O)N[C@H](C(=O)N[C@@H](CCC(=O)O)C(=O)N[C@@H](Cc1ccccc1)C(=O)N[C@@H](CCSC)C(=O)N[C@H](C(=O)N[C@@H](Cc1ccc(O)cc1)C(=O)NCC(=O)N[C@@H](CC(N)=O)C(=O)O)[C@@H](C)O)[C@@H](C)CC)[C@@H](C)CC` as the compound, how does the IC50 (Observed Affinity (IC50) read?
Its IC50 is 1550 nM.

`CC[C@H](C)[C@H](N)C(=O)N[C@@H](CCC(N)=O)C(=O)N[C@@H](CC(C)C)C(=O)N[C@@H](CCC(N)=O)C(=O)N[C@@H](CC(=O)O)C(=O)N[C@@H](CCCCN)C(=O)N[C@@H](Cc1ccccc1)C(=O)N[C@@H](CCC(=O)O)C(=O)N[C@@H](Cc1c[nH]cn1)C(=O)N[C@@H](CC(C)C)C(=O)O` was tested. Which IC50 [1] did it give?
The IC50 was 4270 nM.

Which IC50 [1] does the source give for `CC[C@H](C)[C@H](NC(=O)[C@@H](N)CC(C)C)C(=O)N[C@H](C(=O)N[C@@H](CO)C(=O)N[C@@H](CCCNC(=N)N)C(=O)N[C@H](C(=O)N[C@@H](CC(C)C)C(=O)N[C@@H](CC(C)C)C(=O)N[C@@H](CC(C)C)C(=O)O)[C@@H](C)O)C(C)C` here?
Its IC50 is 173 nM.

For `CC[C@H](C)[C@H](NC(=O)[C@@H]1CCCN1C(=O)[C@H](CC(C)C)NC(=O)[C@@H](N)CC(C)C)C(=O)N1CCC[C@H]1C(=O)N1CCC[C@H]1C(=O)N[C@@H](CC(C)C)C(=O)N[C@@H](CO)C(=O)N1CCC[C@H]1C(=O)N[C@@H](CO)C(=O)O`, which IC50 (Observed Affinity (IC50) is on record?
The IC50 was 449 nM.

For `CC[C@H](C)[C@H](NC(=O)[C@H](Cc1ccccc1)NC(=O)[C@H](CCCNC(=N)N)NC(=O)[C@@H]1CCCN1C(=O)[C@H](CC(C)C)NC(=O)[C@H](CO)NC(=O)[C@H](CCC(N)=O)NC(=O)[C@@H](N)CC(C)C)C(=O)N[C@@H](CC(C)C)C(=O)N[C@@H](CCSC)C(=O)O`, which IC50 [1] is on record?
Its IC50 is 413 nM.

Which IC50 [1] does the source give for `CC(C)C[C@H](NC(=O)[C@H](CO)NC(=O)[C@H](CC(N)=O)NC(=O)[C@H](CS)NC(=O)[C@H](CCC(=O)O)NC(=O)[C@H](Cc1c[nH]cn1)NC(=O)[C@H](CC(C)C)NC(=O)[C@@H](NC(=O)[C@H](CCC(N)=O)NC(=O)[C@@H](N)CC(C)C)C(C)C)C(=O)O` here?
Its IC50 is 4720 nM.

Which IC50 [1] does the source give for `CSCC[C@H](N)C(=O)N[C@@H](C)C(=O)N[C@@H](CC(C)C)C(=O)N[C@@H](CC(N)=O)C(=O)N[C@@H](CO)C(=O)N[C@@H](CCC(=O)O)C(=O)N[C@@H](C)C(=O)N[C@@H](CC(C)C)C(=O)N[C@@H](CO)C(=O)N[C@H](C(=O)O)C(C)C` here?
Its IC50 is 129 nM.

With `CSCC[C@H](N)C(=O)N[C@@H](C)C(=O)N[C@@H](CC(N)=O)C(=O)NCC(=O)N[C@@H](CO)C(=O)N[C@@H](CC(C)C)C(=O)N[C@@H](CC(C)C)C(=O)N[C@@H](CC(N)=O)C(=O)N[C@@H](Cc1ccc(O)cc1)C(=O)N[C@@H](CC(C)C)C(=O)O` as the compound, how does the pIC50 (BTK C481S peptide, HLA Allele A02.01, read-out: Affinity) read?
Its pIC50 is 6.00.

What about the IC50 [1] of the same compound?
Its IC50 is 1080 nM.

How did the IC50 [1] turn out when `CSCC[C@H](NC(=O)[C@H](CCCCN)NC(=O)[C@H](CCCNC(=N)N)NC(=O)[C@H](CC(C)C)NC(=O)[C@H](CC(N)=O)NC(=O)[C@H](CC(C)C)NC(=O)[C@H](CCCNC(=N)N)NC(=O)[C@H](CC(C)C)NC(=O)[C@H](CC(C)C)NC(=O)[C@@H](N)CCSC)C(=O)O` was run?
Its IC50 is 2510 nM.

Which IC50 [1] does the source give for `CC[C@H](C)[C@H](NC(=O)[C@@H]1CCCN1C(=O)[C@H](CCCNC(=N)N)NC(=O)[C@H](CCCNC(=N)N)NC(=O)[C@H](CC(N)=O)NC(=O)[C@H](CCSC)NC(=O)[C@@H](N)CO)C(=O)N[C@@H](CC(C)C)C(=O)N[C@H](C(=O)O)[C@@H](C)O` here?
Its IC50 is 3840 nM.

With `CC[C@H](C)[C@H](NC(=O)[C@H](CCC(N)=O)NC(=O)[C@@H](N)CO)C(=O)N[C@@H](CCSC)C(=O)N[C@@H](CO)C(=O)N[C@@H](CC(C)C)C(=O)N[C@@H](Cc1c[nH]c2ccccc12)C(=O)NCC(=O)N[C@@H](CC(C)C)C(=O)O` as the compound, how does the IC50 [1] read?
Its IC50 is 62 nM.

For `CC[C@H](C)[C@H](NC(=O)[C@@H]1CCCN1C(=O)[C@H](CCCNC(=N)N)NC(=O)[C@H](Cc1c[nH]cn1)NC(=O)[C@@H]1CCCN1C(=O)[C@H](CS)NC(=O)[C@H](CCCNC(=N)N)NC(=O)[C@H](CCC(=O)O)NC(=O)[C@H](CC(C)C)NC(=O)[C@@H](N)C(C)C)C(=O)O`, which IC50 [1] is on record?
Its IC50 is 15300 nM.

Which IC50 [1] does the source give for `CC(C)C[C@H](NC(=O)[C@@H](N)C(C)C)C(=O)N[C@@H](CCC(N)=O)C(=O)N[C@@H](CCCNC(=N)N)C(=O)N[C@@H](Cc1ccccc1)C(=O)N[C@@H](CCCNC(=N)N)C(=O)N[C@@H](Cc1ccccc1)C(=O)N[C@H](C(=O)N[C@@H](Cc1c[nH]cn1)C(=O)N[C@H](C(=O)O)C(C)C)[C@@H](C)O` here?
The IC50 was 107 nM.

Which IC50 [1] does the source give for `CC[C@H](C)[C@H](NC(=O)[C@H](Cc1ccc(O)cc1)NC(=O)[C@H](CCC(=O)O)NC(=O)CNC(=O)[C@H](CO)NC(=O)[C@H](Cc1ccccc1)NC(=O)[C@H](C)N)C(=O)N1CCC[C@H]1C(=O)N[C@H](C(=O)N[C@H](C(=O)O)C(C)C)[C@@H](C)O` (H-AFSGEYIPTV-OH; N-terminus and C-terminus assumed) here?
Its IC50 is 781 nM.

`CC[C@H](C)[C@H](NC(=O)[C@H](C)N)C(=O)N[C@@H](CCC(N)=O)C(=O)N1CCC[C@H]1C(=O)N[C@H](C(=O)N[C@@H](CC(C)C)C(=O)N[C@@H](Cc1c[nH]c2ccccc12)C(=O)N[C@H](C(=O)N[C@H](C(=O)O)[C@@H](C)O)[C@@H](C)O)C(C)C` (H-AIQPVLWTT-OH; N-terminus and C-terminus assumed) was tested. Which IC50 [1] did it give?
Its IC50 is 8.1 nM.

`CSCC[C@H](NC(=O)[C@H](Cc1c[nH]cn1)NC(=O)[C@@H](NC(=O)[C@H](CC(C)C)NC(=O)[C@@H](NC(=O)[C@@H]1CCCN1C(=O)[C@H](C)NC(=O)[C@H](CC(C)C)NC(=O)[C@H](C)N)[C@@H](C)O)[C@@H](C)O)C(=O)O` (H-ALAPTLTHM-OH; N-terminus and C-terminus assumed) was tested. Which IC50 [1] did it give?
Its IC50 is 59 nM.

For `CSCC[C@H](NC(=O)[C@H](Cc1c[nH]cn1)NC(=O)[C@@H](NC(=O)[C@H](CC(C)C)NC(=O)[C@@H](NC(=O)[C@@H]1CCCN1C(=O)[C@H](C)NC(=O)[C@H](CC(C)C)NC(=O)[C@H](C)N)[C@@H](C)O)[C@@H](C)O)C(=O)N[C@@H](CC(C)C)C(=O)O` (H-ALAPTLTHML-OH; N-terminus and C-terminus assumed), which IC50 [1] is on record?
Its IC50 is 39 nM.
